Values of other authors in publication PMC8536124 (International Journal of Molecular Sciences, 2021).

Legend:
Design in all cases: method as in earlier work
Ovarian cancer = Ovarian cancer subpanel; read-out: GI50 MG_MID; cited from earlier work
SK-OV-3 = details: cited from earlier work
SF-539 = details: cited from earlier work
Breast cancer = Breast cancer subpanel; read-out: GI50 MG_MID; cited from earlier work
SK-MEL-28 = details: cited from earlier work
SNB-75 = details: cited from earlier work
SNB-19 = details: cited from earlier work
CNS cancer = CNS cancer subpanel; read-out: GI50 MG_MID; cited from earlier work
UO-31 = details: cited from earlier work
A498 = details: cited from earlier work
[1] = tested on: NCI-60 cancer cell line panel; details: mean graph midpoint, full panel; read-out: GI50 MG_MID60; cited from earlier work
LOX IMVI = details: cited from earlier work
TK-10 = details: cited from earlier work
ACHN = details: cited from earlier work
M14 = details: cited from earlier work
SK-MEL-2 = details: cited from earlier work
RXF 393 = details: cited from earlier work
SF-268 = details: cited from earlier work
HOP-92 = details: cited from earlier work
OVCAR-5 = details: cited from earlier work
NCI-H226 = details: cited from earlier work
T-47D = details: cited from earlier work
CAKI-1 = details: cited from earlier work
COLO 205 = details: cited from earlier work
SK-MEL-5 = details: cited from earlier work
PC-3 = details: cited from earlier work
U251 = details: cited from earlier work
Renal Cancer = details: Renal cancer subpanel; read-out: GI50 MG_MID; cited from earlier work
MCF7 = details: cited from earlier work
NSC lung cancer = NSC lung cancer subpanel; read-out: GI50 MG_MID; cited from earlier work
UACC-257 = details: cited from earlier work
HCT-15 = details: cited from earlier work
MDA-MB-31/ATCC = details: cited from earlier work
BT-549 = details: cited from earlier work
OVCAR-4 = details: cited from earlier work
Colon Cancer = Colon Cancer subpanel; read-out: GI50 MG_MID; cited from earlier work
MDA-MB-435 = details: cited from earlier work
HCC-2998 = details: cited from earlier work
KM12 = details: cited from earlier work
NCI/ADR-RES = details: cited from earlier work
OVCAR-8 = details: cited from earlier work
HCT-116 = details: cited from earlier work
HOP-62 = details: cited from earlier work
UACC-62 = details: cited from earlier work
786-0 = details: cited from earlier work
HT29 = details: cited from earlier work
NCI-H460 = details: cited from earlier work
NCI-H522 = details: cited from earlier work
Prostate cancer = Prostate cancer subpanel; read-out: GI50 MG_MID; cited from earlier work
OVCAR-3 = details: cited from earlier work
Melanoma = Melanoma subpanel; read-out: GI50 MG_MID; cited from earlier work
DU-145 = details: cited from earlier work
NCI-H23 = details: cited from earlier work
HS 578T = details: cited from earlier work
MALME-3M = details: cited from earlier work
A549/ATCC = details: cited from earlier work
SW-620 = details: cited from earlier work
IGROV1 = details: cited from earlier work
SN12C = details: cited from earlier work

For `O=c1[nH]cc(F)c(=O)[nH]1` [Compound 5-FU, 5-fluorouracil], the GI50 (Ovarian cancer) is given as 5.77 µM, the GI50 (SK-OV-3) is given as 21.8 µM and the GI50 (SF-539) is given as 60 nM. For the same compound, the GI50 (Breast cancer) was 7.03 µM, the GI50 (SK-MEL-28) was 1030 nM and the GI50 (SNB-75) was 78.7 µM. The GI50 (SNB-19) was 3.81 µM, the GI50 (CNS cancer) was 17 µM and the GI50 (UO-31) was 1420 nM. For the same compound, the GI50 (A498) was 350 nM, the GI50 [1] was 6.97 µM and the GI50 (LOX IMVI) was 240 nM. The GI50 (TK-10) was 1120 nM, the GI50 (ACHN) was 270 nM and the GI50 (M14) was 980 nM. For the same compound, the GI50 (SK-MEL-2) was 56.7 µM, the GI50 (RXF 393) was 2610 nM and the GI50 (SF-268) was 1620 nM. The GI50 (HOP-92) was 77.9 µM, the GI50 (OVCAR-5) was 10.9 µM and the GI50 (NCI-H226) was 54.7 µM. For the same compound, the GI50 (T-47D) was 8.12 µM, the GI50 (CAKI-1) was 70 nM and the GI50 (COLO 205) was 150 nM. For the same compound, the GI50 (SK-MEL-5) was 460 nM, the GI50 (PC-3) was 2360 nM and the GI50 (U251) was 920 nM. The GI50 (Renal Cancer) was 880 nM, the GI50 (MCF7) was 70 nM and the GI50 (NSC lung cancer) was 20.1 µM. The GI50 (UACC-257) was 3.55 µM, the GI50 (HCT-15) was 110 nM and the GI50 (MDA-MB-31/ATCC) was 6.6 µM. The GI50 (BT-549) was 10.6 µM, the GI50 (OVCAR-4) was 4.43 µM and the GI50 (Colon Cancer) was 260 nM. The GI50 (MDA-MB-435) was 70 nM, the GI50 (HCC-2998) was 50 nM and the GI50 (KM12) was 210 nM. The GI50 (NCI/ADR-RES) was 310 nM, the GI50 (OVCAR-8) was 1740 nM and the GI50 (HCT-116) was 220 nM. For the same compound, the GI50 (HOP-62) was 390 nM, the GI50 (UACC-62) was 520 nM and the GI50 (786-0) was 720 nM. For the same compound, the GI50 (HT29) was 170 nM, the GI50 (NCI-H460) was 50 nM and the GI50 (NCI-H522) was 7.27 µM. The GI50 (Prostate cancer) was 1360 nM, the GI50 (OVCAR-3) was 10 nM and the GI50 (Melanoma) was 7.07 µM. The GI50 (DU-145) was 360 nM, the GI50 (NCI-H23) was 330 nM and the GI50 (HS 578T) was 9.77 µM. The GI50 (MALME-3M) was 50 nM, the GI50 (A549/ATCC) was 180 nM and the GI50 (SW-620) was 920 nM. For the same compound, the GI50 (IGROV1) was 1220 nM and the GI50 (SN12C) was 490 nM.
